Source: PubChem BioAssay AID270 (DTP/NCI, 2004)
Values joined by “and” are separate entries in the source; they are usually repeats but may differ in a detail not shown here. Equal values may be shown once. Results filed as inconclusive are left out.

Tested on: BDF1 mice, s.c. Lewis lung carcinoma, T/C %
Assay: NCI In Vivo Anticancer Drug Screen. Data for tumor model Lewis Lung Carcinoma (subcutaneous) in B6D2F1 (BDF1) mice
Summary of the method: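 First, mice carry a transplantable tumor. Next, groups receive either compound or vehicle. Finally, survival or tumor dimensions in the dosed animals are divided by the corresponding control figure.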

SMILES: CO[C@H]1/C=C/O[C@@]2(C)Oc3c(C)c(O)c4c(O)c(c(/C=N/N5C(C)CN(Cc6ccccc6)CC5C)c(O)c4c3C2=O)NC(=O)/C(C)=C\C=C\[C@H](C)[C@H](O)[C@@H](C)[C@@H](O)[C@@H](C)[C@H](OC(C)=O)[C@@H]1C (stereo partly specified)
- T/C (endpoint: mean tumor weight, dose: 50.0 mg/kg/injection, schedule: Q01DX009 (ip), vehicle: saline with Tween-80, higher = larger tumour): 112 % of control
- T/C (endpoint: mean tumor weight, dose: 100.0 mg/kg/injection, schedule: Q01DX009 (ip), vehicle: saline with Tween-80, higher = larger tumour): 93 % of control
- T/C (endpoint: mean tumor weight, dose: 200.0 mg/kg/injection, schedule: Q01DX009 (ip), vehicle: saline with Tween-80, higher = larger tumour): 65 % of control
- T/C (endpoint: mean tumor weight, dose: 400.0 mg/kg/injection, schedule: Q01DX009 (ip), vehicle: saline with Tween-80, higher = larger tumour): 47 % of control
- T/C (endpoint: median survival time, dose: 1.6 mg/kg/injection, schedule: Q02DX Z (oral), vehicle: Klucel (hydroxypropylcellulose) (HPC), higher = longer survival): 95 % of control
- T/C (endpoint: median survival time, dose: 3.12 mg/kg/injection, schedule: Q02DX Z (oral), vehicle: Klucel (hydroxypropylcellulose) (HPC), higher = longer survival): 91 % of control
- T/C (endpoint: median survival time, dose: 12.5 mg/kg/injection, schedule: Q02DX Z (oral), vehicle: Klucel (hydroxypropylcellulose) (HPC), higher = longer survival): 87 % of control
- T/C (endpoint: median survival time, dose: 25.0 mg/kg/injection, schedule: Q02DX Z (oral), vehicle: Klucel (hydroxypropylcellulose) (HPC), higher = longer survival): 91 % of control
- T/C (endpoint: median survival time, dose: 50.0 mg/kg/injection, schedule: Q02DX Z (oral), vehicle: Klucel (hydroxypropylcellulose) (HPC), higher = longer survival): 95 % of control
- T/C (endpoint: median survival time, dose: 100.0 mg/kg/injection, schedule: Q01DX009 (ip), vehicle: saline with Tween-80, higher = longer survival): 112 % of control
- T/C (endpoint: median survival time, dose: 100.0 mg/kg/injection, schedule: Q02DX Z (oral), vehicle: Klucel (hydroxypropylcellulose) (HPC), higher = longer survival): 94 % of control
- T/C (endpoint: median survival time, dose: 200.0 mg/kg/injection, schedule: Q01DX009 (ip), vehicle: saline with Tween-80, higher = longer survival): 100 % of control
- T/C (endpoint: median survival time, dose: 200.0 mg/kg/injection, schedule: Q02DX Z (oral), vehicle: Klucel (hydroxypropylcellulose) (HPC), higher = longer survival): 102 % of control

SMILES: CCOP(=O)(N1CC1(C)C)N1CC1(C)C (stereo unspecified)
- T/C (endpoint: median survival time, dose: 5.0 mg/kg/injection, schedule: Q01DX009 (ip), vehicle: saline, higher = longer survival): 94 % of control
- T/C (endpoint: median survival time, dose: 10.0 mg/kg/injection, schedule: Q01DX009 (ip), vehicle: saline, higher = longer survival): 101 % of control
- T/C (endpoint: median survival time, dose: 20.0 mg/kg/injection, schedule: Q01DX009 (ip), vehicle: saline, higher = longer survival): 94 % of control
- T/C (endpoint: median survival time, dose: 30.0 mg/kg/injection, schedule: Q01DX009 (ip), vehicle: saline, higher = longer survival): 101 % of control
- T/C (endpoint: median survival time, dose: 50.0 mg/kg/injection, schedule: Q01DX009 (ip), vehicle: saline, higher = longer survival): 90 % of control
- T/C (endpoint: median survival time, dose: 80.0 mg/kg/injection, schedule: Q01DX009 (ip), vehicle: saline, higher = longer survival): 99 % of control

SMILES: CC(/C=N/N=C(N)N)=N\N=C(N)N
- T/C (endpoint: mean tumor weight, dose: 15.0 mg/kg/injection, schedule: Q01DX011 (ip), vehicle: saline, higher = larger tumour): 119 % of control
- T/C (endpoint: mean tumor weight, dose: 30.0 mg/kg/injection, schedule: Q01DX011 (ip), vehicle: saline, higher = larger tumour): 88 % of control
- T/C (endpoint: mean tumor weight, dose: 60.0 mg/kg/injection, schedule: Q01DX011 (ip), vehicle: saline, higher = larger tumour): 46 % of control

SMILES: CCCN(/C=C/C=C/C=[N+](CCC)CCC)CCC
- T/C (endpoint: median survival time, dose: 0.03 mg/kg/injection, schedule: Q01DX009 (ip), vehicle: saline, higher = longer survival): 114 % of control
- T/C (endpoint: median survival time, dose: 0.05 mg/kg/injection, schedule: Q01DX009 (ip), vehicle: saline, higher = longer survival): 100 % of control
- T/C (endpoint: median survival time, dose: 0.1 mg/kg/injection, schedule: Q01DX009 (ip), vehicle: saline, higher = longer survival): 115 % of control
- T/C (endpoint: median survival time, dose: 0.2 mg/kg/injection, schedule: Q01DX009 (ip), vehicle: saline, higher = longer survival): 108 % of control

SMILES: C=C1C(=O)O[C@@H]2[C@H](O)[C@@H](C)[C@@H]3C=CC(=O)[C@@]3(C)[C@H](OC(=O)C=C(C)C)[C@H]12
- T/C (endpoint: median survival time, dose: 0.63 mg/kg/injection, schedule: Q01DX009 (ip), vehicle: saline with Tween-80, higher = longer survival): 95 % of control
- T/C (endpoint: median survival time, dose: 1.25 mg/kg/injection, schedule: Q01DX009 (ip), vehicle: saline with Tween-80, higher = longer survival): 92 % of control
- T/C (endpoint: median survival time, dose: 2.5 mg/kg/injection, schedule: Q01DX009 (ip), vehicle: saline with Tween-80, higher = longer survival): 99 % of control
- T/C (endpoint: median survival time, dose: 5.0 mg/kg/injection, schedule: Q01DX009 (ip), vehicle: saline with Tween-80, higher = longer survival): 95 % of control
- T/C (endpoint: median survival time, dose: 10.0 mg/kg/injection, schedule: Q01DX009 (ip), vehicle: Klucel (hydroxypropylcellulose) (HPC), higher = longer survival): 118 % of control
- T/C (endpoint: median survival time, dose: 10.0 mg/kg/injection, schedule: Q01DX009 (ip), vehicle: saline with Tween-80, higher = longer survival): 92 % of control

SMILES: COc1ccc(/C=C/c2ccc3ccccc3[n+]2C)c(OC)c1OC
- T/C (endpoint: median survival time, dose: 0.31 mg/kg/injection, schedule: Q01DX009 (ip), vehicle: Klucel (hydroxypropylcellulose) (HPC), higher = longer survival): 117 % of control
- T/C (endpoint: median survival time, dose: 0.62 mg/kg/injection, schedule: Q01DX009 (ip), vehicle: Klucel (hydroxypropylcellulose) (HPC), higher = longer survival): 108 % of control
- T/C (endpoint: median survival time, dose: 1.25 mg/kg/injection, schedule: Q01DX009 (ip), vehicle: Klucel (hydroxypropylcellulose) (HPC), higher = longer survival): 107 % of control
- T/C (endpoint: median survival time, dose: 2.5 mg/kg/injection, schedule: Q01DX009 (ip), vehicle: Klucel (hydroxypropylcellulose) (HPC), higher = longer survival): 89 % of control and 92 % of control
